# Source: patent publication US20110105389A1 (priority 2009, published 2011)
# Key:
# [1] = biological target: T1, GHS-R1a receptor (HEK293 cells expressing GHS-R1a receptor) (Homo sapiens, UniProt Q92847); assay: Fluorescence functional assay (ghrelin receptor), Method B2, agonist and antagonist mode; assay type: cell-based; conditions: functional activity as an antagonist at the ghrelin receptor, Methods B2 and B3
# T1 construct: host or cells: HEK293
# Outline: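 Calcium flux read by ImageTrak epifluorescence in HEK293 cells stably expressing GHS-R1a, loaded 1 h at 37 °C with Calcium-3 dye; buffer HBSS/20 mM Hepes, pH 7.4, with probenecid and BSA. Agonists injected after 10 s baseline, read 50 s more; antagonists 3 min. Sigmoidal fits gave EC50 or IC50.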
# [2] = Metabolic stability in human liver microsomes, Method B8; assay type: in vitro ADME; conditions: human liver microsomes 0.8 mg/mL, 5 μM compound, 37° C.
# Excerpt: B8. Metabolic Stability in Human Liver Microsomes
# The liver is the primary site for phase I (oxidation) and phase II (glucuronidation) enzymatic activity responsible for xenobiotic metabolism. Human liver microsomes are used as in vitro screen of metabolic activity for candidate drugs. Similar studies can be run with microsomes from other species, such as those used for in vivo studies, to determine any significant species differences in the stability profile. The aim of this study was to measure the broad-spectrum metabolic stability of representative compounds of the invention. The key aspects of the experimental design are summarized below: • Human liver microsomes (mixed pool of 15 male and female donors) were purchased from In Vitro Technologies (Baltimore, Md.). • Microsomes characterized for phase I (Cyp2A6, 2D6, 2E1, 1A2, 2C19, 3A4, 4A) and phase II (glucuronidation) enzymatic activity. • Assays are performed using a final concentration of 0.8 mg/mL of microsomes in 100 mM potassium phosphate buffer (1.5 mM NADPH, 8 mM MgCl2, pH 7.4, 37° C.). • Compounds are tested in duplicate samples at a single concentration of 5 μM (0.05% DMSO). • Test articles are incubated with the microsomes at 37° C.
# T1 sequence (Q92847 whole entry): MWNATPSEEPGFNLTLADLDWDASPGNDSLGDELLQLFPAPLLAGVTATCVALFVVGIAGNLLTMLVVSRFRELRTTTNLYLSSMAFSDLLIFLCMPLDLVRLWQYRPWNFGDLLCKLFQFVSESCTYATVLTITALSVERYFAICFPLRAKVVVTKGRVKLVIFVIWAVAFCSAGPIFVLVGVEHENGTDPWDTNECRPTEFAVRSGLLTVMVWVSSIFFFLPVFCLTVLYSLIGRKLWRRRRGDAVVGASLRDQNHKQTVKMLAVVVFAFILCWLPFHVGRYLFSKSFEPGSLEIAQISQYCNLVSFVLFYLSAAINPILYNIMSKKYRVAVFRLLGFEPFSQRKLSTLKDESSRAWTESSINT
SMILES,Antagonist Activity [1],"HLM, metabolic stability in human liver microsomes [2] [μL/min/mg protein]"
COc1cccc(C[C@H]2NC(=O)[C@H](C(C)O)N(C)C(=O)[C@H](C(C)C)NCCOc3ccccc3CC[C@@H](C)NC2=O)c1 (stereo partly shown) [Compound 1371],B (B = 1-10 nM),30.5
CC(C)[C@@H]1NCCOc2ccccc2CC[C@@H](C)NC(=O)[C@@H](Cc2ccc(F)c(F)c2)NC(=O)[C@H](C(C)O)N(C)C1=O (stereo partly shown) [Compound 1372],A (A <1 nM),60.8
Cc1cccc(C[C@H]2NC(=O)[C@H](C(C)O)N(C)C(=O)[C@H](C(C)C)NCCOc3ccccc3CC[C@@H](C)NC2=O)c1 (stereo partly shown) [Compound 1373],A (A <1 nM),31
CC(C)[C@@H]1NCCOc2ccccc2CC[C@@H](C)NC(=O)[C@@H](Cc2cccc(C#N)c2)NC(=O)[C@H](C(C)O)N(C)C1=O (stereo partly shown) [Compound 1374],B (B = 1-10 nM),35.8
CC(C)[C@@H]1NCCOc2c(F)cccc2CCCNC(=O)[C@@H](Cc2ccccc2)NC(=O)[C@H](C(C)O)N(C)C1=O (stereo partly shown) [Compound 1376],C (C = 10-100 nM),32.2
CC(C)[C@@H]1NCCOc2cccc(F)c2CCCNC(=O)[C@@H](Cc2ccccc2)NC(=O)[C@H](C(C)O)N(C)C1=O (stereo partly shown) [Compound 1378],C (C = 10-100 nM),42.9
CC[C@@H]1CCc2ccccc2OCCN[C@@H](C(C)C)C(=O)N(C)[C@@H](C(C)O)C(=O)N[C@H](Cc2ccccc2)C(=O)N1 (stereo partly shown) [Compound 1393],B (B = 1-10 nM),46.6
Cc1cccc(C[C@H]2NC(=O)[C@H](C(C)O)N(C)C(=O)[C@H](C(C)C)NCCOc3cc(F)ccc3CC[C@@H](C)NC2=O)c1 (stereo partly shown) [Compound 1451],B (B = 1-10 nM),10.4
